Columns and labels:
[1] = molecular target: ERK2 (Homo sapiens, UniProt P28482); test: ERK2 inhibition assay (spectrophotometric coupled-enzyme assay); type: biochemical; conditions: read-out: ERK2 Inhibitory Activity (Ki class D-F)
Procedure: The IC50 was evaluated from the rate data as a function of inhibitor concentration. […] The compound numbers correspond to the compound numbers in Table 1.

[2] = molecular target: T1, GSK-3β (AA 1–420) (Homo sapiens, UniProt P49841); test: GSK-3 inhibition assay (coupled enzyme system); type: biochemical; conditions: read-out: GSK3 Inhibitory Activity (Ki class)
T1 construct: GSK-3β (AA 1–420)
Procedure: Final substrate concentrations in the assay were 20 μM ATP (Sigma Chemicals, St Louis, Mo.) and 300 μM peptide (HSSPHQS(PO3H2)EDEEE, American Peptide, Sunnyvale, Calif.). Reactions were carried out at 30° C. and 20 nM GSK-3β. Final concentrations of the components of the coupled enzyme system were 2.5 mM phosphoenolpyruvate, 300 μM NADH, 30 μg/ml pyruvate kinase and 10 μg/ml lactate dehydrogenase.
An assay stock buffer solution was prepared containing all of the reagents listed above with the exception of ATP and the test compound of interest. The assay stock buffer'solution (175 μl) was incubated in a 96 well plate with 5 μl of the test compound of interest at final concentrations spanning 0.002 μM to 30 μM at 30° C. for 10 min. […] The reaction was initiated by the addition of 20 μl of ATP (final concentration 20 μM). Rates of reaction were obtained using a Molecular Devices Spectramax plate reader (Sunnyvale, Calif.) over 10 min at 30° C. The Ki values were determined from the rate data as a function of inhibitor concentration.
The compound numbers correspond to the compound numbers in Table 1.

T1 sequence (P49841 whole entry, species assumed, the tested form may be a part): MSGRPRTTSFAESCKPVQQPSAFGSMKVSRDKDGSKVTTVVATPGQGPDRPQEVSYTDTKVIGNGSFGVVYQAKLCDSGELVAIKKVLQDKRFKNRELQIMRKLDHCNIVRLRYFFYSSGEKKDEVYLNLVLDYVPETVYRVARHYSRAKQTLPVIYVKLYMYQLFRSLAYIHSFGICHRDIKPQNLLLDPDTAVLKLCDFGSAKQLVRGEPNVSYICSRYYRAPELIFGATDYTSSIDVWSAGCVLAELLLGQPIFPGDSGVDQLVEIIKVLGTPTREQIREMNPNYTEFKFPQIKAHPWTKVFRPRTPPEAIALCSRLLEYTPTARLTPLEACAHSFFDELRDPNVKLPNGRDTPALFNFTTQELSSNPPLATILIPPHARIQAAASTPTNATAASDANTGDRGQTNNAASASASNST
Sequence of ERK2 (P28482 whole entry): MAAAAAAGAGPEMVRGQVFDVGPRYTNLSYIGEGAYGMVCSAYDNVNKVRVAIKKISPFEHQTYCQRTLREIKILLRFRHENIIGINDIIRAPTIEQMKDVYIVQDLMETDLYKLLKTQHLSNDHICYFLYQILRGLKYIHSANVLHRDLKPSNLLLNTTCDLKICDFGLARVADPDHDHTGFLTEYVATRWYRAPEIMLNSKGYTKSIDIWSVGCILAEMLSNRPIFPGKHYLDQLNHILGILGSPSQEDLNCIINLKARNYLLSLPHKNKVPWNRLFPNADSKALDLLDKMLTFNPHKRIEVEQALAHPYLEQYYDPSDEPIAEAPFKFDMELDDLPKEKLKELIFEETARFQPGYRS

Structure (SMILES) | Ki [1] [nM] | Ki [2] [nM]
Cc1cccc(C(CO)NC(=O)c2cc(-c3nc(Nc4cccc(N(C)C)c4)ncc3C)c[nH]2)c1 (centres unmarked) [III-a-208] | < 100 | < 100
Cc1cnc(NOC(C)C)nc1-c1c[nH]c(C(=O)NC(CO)c2ccccc2)c1 (centres unmarked) [III-a-207, 4-(2-Isopropoxyamino-5-methyl-pyrimidin-4-yl)-1H-pyrrole-2-carboxylic acid (2-hydroxy-1-phenyl-ethyl)-amide] | < 100 | 100 to 1000
CCC(CO)Nc1ncc(C)c(-c2c[nH]c(C(=O)NC(CO)c3cccc(Cl)c3)c2)n1 (centres unmarked) [III-a-232, 4-[2-(1-Hydroxymethyl-propylamino)-5-methyl-pyrimidin-4-yl]-1H-pyrrole-2-carboxylic acid (1-(3-chloro-phenyl)-2-hydroxy-ethyl]-amide] | < 100 | 100 to 1000
CCNc1ncc(C)c(-c2c[nH]c(C(=O)NC(CO)c3cccnc3)c2)n1 (centres unmarked) [III-a-188, 4-(2-Ethylamino-5-methyl-pyrimidin-4-yl)-1H-pyrrole-2-carboxylic acid (2-hydroxy-1-pyridin-3-yl-ethyl)-amide] | 100 to 1000 | > 1000
Cc1cnc(Nc2ccc(OC(F)(F)F)cc2)nc1-c1c[nH]c(C(=O)NC(CO)c2ccccc2)c1 (centres unmarked) [III-a-157, 4-[5-Methyl-2-(4-trifluoromethoxy-phenylamino)-pyrimidin-4-yl]-1H-pyrrole-2-carboxylic acid (2-hydroxy-1-phenyl-ethyl)-amide] | < 100 | < 100
CCNc1ncc(C)c(-c2c[nH]c(C(=O)NC(CO)c3cc(F)cc(C(F)(F)F)c3)c2)n1 (centres unmarked) [III-a-190, 4-(2-Ethylamino-5-methyl-pyrimidin-4-yl)-1H-pyrrole-2-carboxylic acid [1-(3-fluoro-5-trifluoromethyl-phenyl)-2-hydroxy-ethyl]-amide] | 100 to 1000 | 100 to 1000
Cc1cnc(NCC2CCCO2)nc1-c1c[nH]c(C(=O)NC(CO)c2ccccc2)c1 (centres unmarked) [III-a-216, 4-{5-Methyl-2-[(tetrahydro-furan-2-ylmethyl)-amino]-pyrimidin-4-yl}-1H-pyrrole-2-carboxylic acid (2-hydroxy-1-phenyl-ethyl)-amide] | < 100 | < 100
COc1ccccc1C(CO)NC(=O)c1cc(-c2nc(NC3CC3)ncc2C)c[nH]1 (centres unmarked) [III-a-203, 4-(2-Cyclopropylamino-5-methyl-pyrimidin-4-yl)-1H-pyrrole-2-carboxylic acid [2-hydroxy-1-(2-methoxy-phenyl)-ethyl]-amide] | < 100 | 100 to 1000
Cc1cnc(NC(CO)CC2CC2)nc1-c1c[nH]c(C(=O)NC(CO)c2ccccc2)c1 (centres unmarked) [III-a-193, 4-[2-(2-Cyclopropyl-1-hydroxymethyl-ethylamino)-5-methyl-pyrimidin-4-yl]-1H-pyrrole-2-carboxylic acid (2-hydroxy-1-phenyl-ethyl)-amide] | < 100 | 100 to 1000
Cc1cnc(NC(CO)CO)nc1-c1c[nH]c(C(=O)NC(CO)c2cccc(Cl)c2)c1 (centres unmarked) [III-a-233, 4-[2-(2-Hydroxy-1-hydroxymethyl-ethylamino)-5-methyl-pyrimidin-4-yl]-1H-pyrrole-2-carboxylic acid [1-(3-chloro-phenyl)-2-hydroxy-ethyl]-amide] | < 100 | > 1000
Cc1cnc(NOCCO)nc1-c1c[nH]c(C(=O)NC(CO)c2ccccc2)c1 (centres unmarked) [III-a-225, 4-[2-(2-Hydroxy-ethoxyamino)-5-methyl-pyrimidin-4-yl]-1H-pyrrole-2-carboxylic acid (2-hydroxy-1-phenyl-ethyl)-amide] | < 100 | < 100
Cc1cccc(C(CO)NC(=O)c2cc(-c3nc(Nc4ccccc4C)ncc3C)c[nH]2)c1 (centres unmarked) [III-a-223, 4-(5-Methyl-2-o-tolylamino-pyrimidin-4-yl)-1H-pyrrole-2-carboxylic acid (2-hydroxy-1-m-tolyl-ethyl)-amide] | < 100 | < 100
Cc1cnc(Nc2cccnc2)nc1-c1c[nH]c(C(=O)NC(CO)c2ccccc2)c1 (centres unmarked) [III-a-215, 4-[5-Methyl-2-(pyridin-3-ylamino)-pyrimidin-4-yl]-1H-pyrrole-2-carboxylic acid (2-hydroxy-1-phenyl-ethyl)-amide] | < 100 | < 100
CCNc1ncc(C)c(-c2c[nH]c(C(=O)NC(CO)c3cccc(C(F)(F)F)c3)c2)n1 (centres unmarked) [III-a-198, 4-(2-Ethylamino-5-methyl-pyrimidin-4-yl)-1H-pyrrole-2-carboxylic acid [2-hydroxy-1-(3-trifluoromethyl-phenyl)-ethyl]-amide] | < 100 | > 1000
Cc1cnc(Nc2cccc(F)c2)nc1-c1c[nH]c(C(=O)NC(CO)c2cccc(C(F)(F)F)c2)c1 (centres unmarked) [III-a-199, 4-[2-(3-Fluoro-phenylamino)-5-methyl-pyrimidin-4-yl]-1H-pyrrole-2-carboxylic acid [2-hydroxy-1-(3-trifluoromethyl-phenyl)-ethyl]-amide] | < 100 | < 100
Cc1cnc(NC2CCCCC2O)nc1-c1c[nH]c(C(=O)NC(CO)c2ccccc2)c1 (centres unmarked) [III-a-179, 4-[2-(2-Hydroxy-cyclohexylamino)-5-methyl-pyrimidin-4-yl]-1H-pyrrole-2-carboxylic acid (2-hydroxy-1-phenyl-ethyl)-amide] | < 100 | < 100
Cc1cnc(NC(C)CO)nc1-c1c[nH]c(C(=O)NC(CO)c2ccccc2)c1 (centres unmarked) [III-a-176, 4-[2-(2-Hydroxy-1-methyl-ethylamino)-5-methyl-pyrimidin-4-yl]-1H-pyrrole-2-carboxylic acid (2-hydroxy-1-phenyl-ethyl)-amide] | < 100 | < 100
Cc1ccc(C(CO)NC(=O)c2cc(-c3nc(Nc4cccc(F)c4)ncc3C)c[nH]2)cc1F (centres unmarked) [III-a-147, 4-[2-(3-Fluoro-phenylamino)-5-methyl-pyrimidin-4-yl]-1H-pyrrole-2-carboxylic acid [1-(3-fluoro-4-methyl-phenyl)-2-hydroxy-ethyl]-amide] | < 100 | < 100
Cc1cccc(C(CO)NC(=O)c2cc(-c3nc(Nc4cccc(C)c4C)ncc3C)c[nH]2)c1 (centres unmarked) [III-a-211, 4-[2-(2,3-Dimethyl-phenylamino)-5-methyl-pyrimidin-4-yl]-1H-pyrrole-2-carboxylic acid (2-hydroxy-1-m-tolyl-ethyl)-amide] | < 100 | 100 to 1000
Cc1cccc(C(CO)NC(=O)c2cc(-c3nc(NC(C)CO)ncc3C)c[nH]2)c1 (centres unmarked) [III-a-222, 4-[2-(2-Hydroxy-1-methyl-ethylamino)-5-methyl-pyrimidin-4-yl]-1H-pyrrole-2-carboxylic acid (2-hydroxy-1-m-tolyl-ethyl)-amide] | < 100 | 100 to 1000

Results, then the compound that gave them:

Ki [1] [nM] | Ki [2] [nM] | Structure (SMILES)
100 to 1000 | > 1000 | CCNc1ncc(C)c(-c2c[nH]c(C(=O)NC(C(=O)OC)c3ccccc3)c2)n1 (centres unmarked) [III-a-184, {[4-(2-Ethylamino-5-methyl-pyrimidin-4-yl)-1H-pyrrole-2-carbonyl]-amino}-phenyl-acetic acid methyl ester]
< 100 | > 1000 | CCNc1ncc(CO)c(-c2c[nH]c(C(=O)NC(CO)c3ccccc3)c2)n1 (centres unmarked) [III-a-189, 4-(2-Ethylamino-5-hydroxymethyl-pyrimidin-4-yl)-1H-pyrrole-2-carboxylic acid (2-hydroxy-1-phenyl-ethyl)-amide]
< 100 | 100 to 1000 | Cc1cnc(NCC(C)O)nc1-c1c[nH]c(C(=O)NC(CO)c2ccccc2)c1 (centres unmarked) [III-a-178, 4-[2-(2-Hydroxy-propylamino)-5-methyl-pyrimidin-4-yl]-1H-pyrrole-2-carboxylic acid (2-hydroxy-1-phenyl-ethyl)-amide]
< 100 | < 100 | Cc1cnc(NCC(C)C)nc1-c1c[nH]c(C(=O)NC(CO)c2ccccc2)c1 (centres unmarked) [III-a-158, 4-(2-Isobutylamino-5-methyl-pyrimidin-4-yl)-1H-pyrrole-2-carboxylic acid (2-hydroxy-1-phenyl-ethyl)-amide]
< 100 | < 100 | Cc1cnc(NCC(F)(F)F)nc1-c1c[nH]c(C(=O)NC(CO)c2ccccc2)c1 (centres unmarked) [III-a-154, 4-[5-Methyl-2-(2,2,2-trifluoro-ethylamino)-pyrimidin-4-yl]-1H-pyrrole-2-carboxylic acid (2-hydroxy-1-phenyl-ethyl)-amide]
< 100 | 100 to 1000 | CCNc1ncc(C)c(-c2c[nH]c(C(=O)NC(CO)c3cccc(F)c3)c2)n1 (centres unmarked) [III-a-191, 4-(2-Ethylamino-5-methyl-pyrimidin-4-yl)-1H-pyrrole-2-carboxylic acid [1-(3-fluoro-phenyl)-2-hydroxy-ethyl]-amide]
100 to 1000 | > 1000 | CCNc1ncc(C)c(-c2c[nH]c(C(=O)NC(CCO)c3ccccc3)c2)n1 (centres unmarked) [III-a-173, 4-(2-Ethylamino-5-methyl-pyrimidin-4-yl)-1H-pyrrole-2-carboxylic acid (3-hydroxy-1-phenyl-propyl)-amide]
> 1000 | > 1000 | CCNc1ncc(C)c(-c2c[nH]c(C(=O)NC(CCO)c3ccccc3)c2)n1 (centres unmarked) [III-a-172, 4-(2-Ethylamino-5-methyl-pyrimidin-4-yl)-1H-pyrrole-2-carboxylic acid (3-hydroxy-1-phenyl-propyl)-amide]

From patent US7253187B2, “Heterocyclic inhibitors of ERK2 and uses thereof” (Vertex Pharmaceuticals Incorporated, priority 2001, dated 2007)
